# Entries after “also recorded” stand apart in the source; their conditions may differ.
# What was measured:
# [1] = system: neuronally differentiated SK-N-SH cells; test: Protection from rotenone induced toxicity in neuronally differentiated SK-N-SH cells; assay type: cell-based; settings: Homo sapiens, 10 μM rotenone
# Method: (§1) In vivo MPTP is metabolized to its active form, the 1-methyl-4-phenylpyridinium ion (MPP^+), and MPP^+ has proven very useful in a variety of cell culture models of PD. To determine the protective effect of PIP-1 on cells subjected to MPP^+ insult, PC-12 (differentiated as above) and SK-N-SH (differentiated with retinoic acid for 12 days) cells are treated with 10 μM MPP^+ and a range of PIP-1 concentrations, and cell death is assessed by propidium iodide staining and flow cytometry. […] As shown in FIGS. 20A and 20B, PIP-1 also protects differentiated PC-12 and SK-N-SH cells from rotenone-induced toxicity as well.
# Cell culture conditions: HL-60 and SK-N-SH cells are grown in RPMI 1640 media supplemented with 10% FBS and PC-12 cells are grown in RPMI 1640 media supplemented with 10% HS and 5% FBS. All cell lines are incubated at 37° C. in a 5% CO2, 95% air atmosphere. HL-60 cells are split every two to three days as needed and SK-N-SH cells are split when they reach approximately 90% confluency at a 1:6 ratio. […]
# Protection of Rotenone and MPP^+ induced toxicity in PC-12 and SK-N-SH cells: SK-N-SH and PC-12 cells are neuronally differentiated as described above. […] The cells are then washed in PBS and the viability is determined by adding propidium iodide to 1 μg/mL and measuring the fluorescent intensity of each cell by flow cytometry.
# PARG = test: Table 2: small molecules tested for PARG inhibition activity (relative to PIP-1); assay type: biochemical
# [2] = system: differentiated PC-12 and SK-N-SH cells; test: Cellular toxicity in differentiated PC-12 and SK-N-SH cells; assay type: cell-based; settings: at concentrations up to 100 μM
# Method: as §1
# Protection of Rotenone and MPP^+ induced toxicity in PC-12 and SK-N-SH cells: SK-N-SH and PC-12 cells are neuronally differentiated as described above. 10 μM rotenone, 10 μM MPP^+ and various concentrations of PIP-1 or its derivatives are added to the cells and incubated for 72 h. The cells are then washed in PBS and the viability is determined by adding propidium iodide to 1 μg/mL and measuring the fluorescent intensity of each cell by flow cytometry.
# U-937 cells = test: Protection against H2O2 treatment of U-937 cells (cell survival); assay type: cell-based; settings: FIG. 13
# Method: We have made multiple derivatives of PIP-1; these compounds are shown below in Table 2 and in FIG. 11 and labeled Structures 1-39. The neuroprotective effects of structures 1-26 were tested in the cellular assay and compared to the neuroprotective effect of PIP-1 (FIG. 13).
# PIP-1 and structures 1-26 were screened for protection against H2O2 treatment of U-937 cells FIG. 13.
# [3] = Assessment of PIP-1 levels in the brain (blood-brain-barrier penetrance); assay type: in vivo, mice; settings: 50 mg/kg i.p.
# Method: As a prelude to assessment of PIP-1 in a mouse model of PD, the ability of PIP-1 to penetrate the blood-brain-barrier is first assessed. PIP-1 is injected i.p. at a dose of 50 mg/kg, and mice are sacrificed at 1 and 2 h post injection. After sacrifice, to establish the presence of PIP-1 in the brain the striatum was dissected, sonicated in perchloric acid, and centrifuged. The clarified supernatant is analyzed by HPLC. No endogenous compounds interfere with this assay for PIP-1 as no signal is detected in dissected striata from non-treated mice. As shown by FIG. 21A, the striatal penetrance of PIP-1 is at the level of 70 ng/mg of protein. […] Given this blood-brain-barrier penetrance by PIP-1, the compound is assessed in the MPTP mouse model of PD. […] PIP-1 is assessed at concentrations of 0 mg/kg, 1 mg/kg, 5 mg/kg, 10 mg/kg, and 50 mg/kg, and five mice are used in each group. After 30 days, the mice are sacrificed and the striatum dissected and analyzed by HPLC to determine the levels of dopamine and various dopamine metabolites.
# Assessment of PIP-1 levels in the brain: PIP-1 was injected into mice i.p. at 50 mg/kg and were sacrificed at 1 and 2 h post injection. […] The clarified supernatant was then injected into an HPLC and the concentration of PIP-1 was determined by comparison to a standard curve. […]
smiles,measurement,setting,value
"CN(C)c1cnn(-c2ccccc2)c(=O)c1N [PIP-1, 4-Amino-5-dimethylamino-2-phenyl-2H-pyridazin-3-one]",EC50,[1],2180 nM
same,Activity,PARG,good
same,Cellular toxicity / adverse effects on differentiated neurons,[2],no adverse effects; also recorded: no cellular toxicity
same,Protection of U-937 cells treated with H2O2 (activity compared to PIP-1),U-937 cells,activity similar or better than PIP-1
same,Striatal penetrance of PIP-1,"[3]; mice, 1 and 2 h post injection, striatum",70 ng/mg of protein
same,PIP-1 in peripheral blood,[3]; same time points,no detectable PIP-1
